Reference: patent publication US20240201204A1, “Biomarker and Druggable Target of Neurodegeneration” (University Hospitals Cleveland Medical Center, priority 2020, published 2024)

Columns and labels:
GAPDH = biological target: T1, GAPDH (Mus musculus, UniProt P16858); test: S-nitrosylation of GAPDH after TBI (SNO-resin assisted capture, western blot); assay type: in vivo
T1 construct: from tissue; host or cells: cerebral cortex of C57BL/6J mice after TBI
Procedure: (§1) Drug preparation and administration: CGP3466B (Sigma-Aldrich, SML1941) was dissolved in DMSO and then diluted in sterile saline. The final working stock was 0.0014 mg/ml for administering the 0.014 mg/kg dose. Intraperitoneal administration of CGP3466B was initiated 15 min or 24 h after injury, and tissues were harvested 6 h (for SNO-GAPDH, SNO-SIRT1 measurement) or 2 weeks (for ac-tau measurement) later, respectively. Salsalate (AdipoGen, AG-CR1-3574) was dissolved in DMSO and then diluted in sterile PBS. The final working stocks were as follows: 2.5 mg/ml (25 mg/kg dose), 1 mg/ml (10 mg/kg dose), 0.5 mg/ml (5 mg/kg dose). Daily intraperitoneal administration of salsalate was initiated 24 hr after injury and continued throughout behavioral testing. P7C3-A20 and FK866 (Sigma-Aldrich, F8557) were first dissolved in 1 vol of DMSO, followed by addition of 4 vol of Kolliphor and vigorously vortexing. The solution was then diluted with 30 vol of filtered 5% dextrose (pH 7.0). EX527 (Selleckchem, S1541) was dissolved in 1% DMSO+30% polyethylene glycol+1% Tween 80. Daily intraperitoneal administration of P7C3-A20 was initiated 24 hr after poly-traumatic brain injury. EX527 (10 mg/kg) was administer once a day and FK866 was treated twice per day, with the first injection given at the same time as P7C3-A20 (20 mg/kg) and the second injection given 6 h later (LoCoco et al., 2017 eLife). Diflunisal was first dissolved in 1 vol of DMSO, followed by addition of 2 vol of Kolliphor and vigorously vortexing. […]
SNO-resin assisted capture (SNO-RAC): SNO-RAC was performed as described previously (Forrester, 2009). […] After two times centrifugation (20,000 g at 4° C. for 20 min), protein concentration of supernatants was determined using Coomassie protein assay (Thermo Scientific, #1856210). […] SNO-proteins were then eluted with 2× Laemmli Sample Buffer (Bio-Rad Laboratories, Inc., #1610737) with 10% beta-mercaptoethanol (Bio-Rad Laboratories, Inc., #1610710) and analyzed by SDS-PAGE and immunoblotting.

axon initial segment = test: Axon initial segment (AIS) degradation after TBI (AnkG, βIV-spectrin staining); assay type: in vivo, mouse; settings: vs. TBI+Vehicle
Procedure: (§2) Drug preparation and administration: CGP3466B (Sigma-Aldrich, SML1941) was dissolved in DMSO and then diluted in sterile saline. The final working stock was 0.0014 mg/ml for administering the 0.014 mg/kg dose. Intraperitoneal administration of CGP3466B was initiated 15 min or 24 h after injury, and tissues were harvested 6 h (for SNO-GAPDH, SNO-SIRT1 measurement) or 2 weeks (for ac-tau measurement) later, respectively. Salsalate (AdipoGen, AG-CR1-3574) was dissolved in DMSO and then diluted in sterile PBS. The final working stocks were as follows: 2.5 mg/ml (25 mg/kg dose), 1 mg/ml (10 mg/kg dose), 0.5 mg/ml (5 mg/kg dose). Daily intraperitoneal administration of salsalate was initiated 24 hr after injury and continued throughout behavioral testing. P7C3-A20 and FK866 (Sigma-Aldrich, F8557) were first dissolved in 1 vol of DMSO, followed by addition of 4 vol of Kolliphor and vigorously vortexing. The solution was then diluted with 30 vol of filtered 5% dextrose (pH 7.0). EX527 (Selleckchem, S1541) was dissolved in 1% DMSO+30% polyethylene glycol+1% Tween 80. Daily intraperitoneal administration of P7C3-A20 was initiated 24 hr after poly-traumatic brain injury. EX527 (10 mg/kg) was administer once a day and FK866 was treated twice per day, with the first injection given at the same time as P7C3-A20 (20 mg/kg) and the second injection given 6 h later (LoCoco et al., 2017 eLife). Diflunisal was first dissolved in 1 vol of DMSO, followed by addition of 2 vol of Kolliphor and vigorously vortexing. The solution was then diluted with 7 vol of saline to the appropriate concentration for administration at 25, 50, or 100 mg/kg.
(§3) The pressure in the side not containing the mouse was increased to cause membrane rupture at 20 pounds per square inch (PSI), which generates an about 1-2 ms jet airflow of 137.9+/−13.79 kPa that passes through the animal's head. The head remains untethered in a padded holder, while the body is fully shielded by a metal tube. The jet of air produced upon membrane rupture provides a concussive injury, which is followed by acceleration/deceleration of the head and then exposure to the ensuing blast wave within an enclosed space.
Immunohistochemistry: Mice were transcardially perfused with cold 1× phosphate-buffered saline (PBS) followed by 4% paraformaldehyde in PBS at pH 7.4 under anesthesia. Brains were carefully removed and post-fixed in 4% paraformaldehyde overnight at 4° C. Brains were immersed in 30% sucrose in PBS for 72 h at 4° C. and then rapidly frozen in 2-methylbutane pre-cooled to −20° C. with dry ice. Brains were cut coronally (40 μm) and sections were stored in cryoprotective solution (150 mM Ethylene glycol, 100 mM glycerol, 250 mM PBS) at −20° C. For tau and NeuN staining, sections were washed three times with PBS for 5 min and then treated with 0.2% Triton X-100 in PBS for 15 min. Sections were washed with PBS and then incubated with 100 mM glycine for 15 min. After blocking sections using blocking buffer (1% bovine serum albumin, 10% normal goat serum, 0.3 M glycine) for 30 min, primary antibodies (Tau, Invitrogen, #13-6400, 1:100, NeuN, EMD Millipore Cor., #MABN-140, 1:500) were incubated overnight at 4° C. Sections were washed three times with PBS (5 min each) and then incubated with Alexa Fluor 488 goat anti-mouse (Invitrogen, A11001, 1:200) or Alexa Fluor 568 goat anti-rabbit (Life technologies, A11011, 1:200) at room temperature for 2 h. […]

degenerating axons = test: Axon degeneration after TBI (silver staining); assay type: in vivo, mouse; settings: vs. TBI+Vehicle
Procedure: as §1, with “eLife).” for “eLife). Diflunisal was first dissolved in 1 vol of DMSO, followed by addition of 2 vol of Kolliphor and vigorously vortexing.”

C57BL/6J mice = test: Barnes maze task of learning and memory after TBI; assay type: in vivo, mouse
Procedure: as §2, §3
Barnes maze: The Barnes maze apparatus consisted of a gray circular platform (91 cm in diameter and 90 cm in height), with 20 equally spaced holes 5 cm in diameter along the perimeter (Stoelting Co.). One of these holes contained a recessed escape chamber located under the platform. Four different and equally-spaced visual cues with different shapes and colors were hung on a black circular curtain surrounding the maze. […] Total and primary latency were measured during training days, and latency to first nose pokes in escape hole and time spent in target quadrant were measured for memory test on the probe trial day. […]

[1] = low-dose salsalate daily IP from 24 h after TBI

T1 sequence (P16858 whole entry): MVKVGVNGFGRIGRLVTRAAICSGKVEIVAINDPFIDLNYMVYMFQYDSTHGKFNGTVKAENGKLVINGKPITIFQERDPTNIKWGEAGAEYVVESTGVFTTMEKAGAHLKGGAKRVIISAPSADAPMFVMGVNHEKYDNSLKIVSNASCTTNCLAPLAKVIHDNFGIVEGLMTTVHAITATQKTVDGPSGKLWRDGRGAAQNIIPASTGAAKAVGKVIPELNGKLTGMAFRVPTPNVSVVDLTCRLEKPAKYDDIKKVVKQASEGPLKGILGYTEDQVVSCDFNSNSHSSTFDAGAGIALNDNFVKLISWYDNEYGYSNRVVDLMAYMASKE

| Structure (SMILES) | S-nitrosylation of GAPDH (GAPDH; CGP3466B 0.014 mg/kg IP initiated 15 min after TBI, cerebral cortex harvested 6 h later, vs. TBI+Vehicle) | post-TBI AIS degradation, cerebral cortex (axon initial segment; CGP3466B 0.014 mg/kg IP daily) | post-TBI AIS degradation, hippocampus (axon initial segment; CGP3466B 0.014 mg/kg IP daily) | post-TBI axon degeneration (silver staining) (degenerating axons; CGP3466B 0.014 mg/kg IP daily) | post-TBI cognition, learning and memory phases of Barnes maze (C57BL/6J mice; CGP3466B 0.014 mg/kg IP daily, initiated 24 hours after injury, vs. TBI+Vehicle) | S-nitrosylation of GAPDH (GAPDH; 25 mg/kg salsalate after TBI) | post-TBI AIS degradation (axon initial segment; [1]) | post-TBI axonal degeneration (degenerating axons; [1]) | post-TBI cognitive impairment (learning and memory in the Barnes maze) (C57BL/6J mice; low-dose salsalate daily IP from 24 h after TBI, vs. TBI+Vehicle) | average speed in behavioral testing (C57BL/6J mice; salsalate daily IP from 24 h after TBI) | learning, primary latency during training period of the Barnes maze (C57BL/6J mice; salsalate daily IP from 24 h after TBI, vs. TBI+Vehicle) |
| --- | --- | --- | --- | --- | --- | --- | --- | --- | --- | --- | --- |
| C#CCN(C)CC1=Cc2ccccc2Oc2ccccc21.O=C(O)/C=C\C(=O)O [CGP3466B] | inhibits S-nitrosylation of GAPDH and Sirt1 | protects mice from post-TBI AIS degradation in the cerebral cortex | protects mice from post-TBI AIS degradation in the hippocampus | protects mice from post-TBI axon degeneration | protects mice from post-TBI impaired cognition in both learning and memory phases | – | – | – | – | – | – |
| O=C(Oc1ccccc1C(=O)O)c1ccccc1O [salsalate] | – | – | – | – | – | S-nitrosylation of GAPDH is not affected | protects mice from post-TBI AIS degradation | protects mice from post-TBI axonal degeneration | protects mice from post-TBI impairments | Average speed was not affected | improved learning as measured by primary latency |
